In paper PMC12535377, “Synaptic and intrinsic plasticity mediated by CCK-type signaling coordinates behavioral changes during motivational state shifts” (Cell reports, 2025):
Non-standard residues stand in square brackets, D forms with d. Residues, ends and D or L forms follow the SMILES beside them. sY = N[C@@H](Cc1ccc(OS(=O)(=O)O)cc1)C(=O)O; pGlu = O=C1CC[C@@H](C(=O)O)N1

How the values were obtained:
Aplysia californica = assay: Feeding behavior (food intake) in intact animals after peptide injection; type: in vivo; settings: for Behavioral effect (food intake), summary grade: Table S1 summary in words; for Food intake (seaweed consumed in a single meal): food-deprived animals
Source text: To explore the role of apCCKs as satiety signals in mollusks, we examined their effects on food intake. […] The remaining four forms had no impact (Figure S9). Moreover, [sY6, sY8]-apCCK1 slowed food consumption (Figure 2E), which could stem, in part, from a shift from ingestive to egestive patterns as the meal progressed. [sY6, sY8]-apCCK1 also extended the duration to consume one strip of seaweed compared to controls (Figure 2F), further mimicking natural satiety.
Behavioral experiments were conducted in two batches, each using animals from separate shipments. In the first batch (Figure 2), animals were larger, with an average body weight of 93.3 ± 4.8 g, and were food-deprived for 7 days prior to testing. In the second batch (Figure S9), animals were smaller (average weight: 70.6 ± 4.0 g) and were food-deprived for 5 days to account for their reduced size. In each experiment, two weight-matched animals were housed in separate round net cages (17 cm diameter and 17 cm height) that were placed in a 500 L tank filled with circulating aerated ASW (14°C–16°C). To ensure that the animals were responsive to food, they were first pretested with a small piece of seaweed. After this pretest, in each pair, one animal was injected (into the hemocoel using a syringe needle) with apCCKs freshly dissolved in 1.5 mL ASW, whereas the other was injected with 1.5 mL of ASW. Three minutes later, the feeding session commenced. Animals were hand-fed seaweed (Shirako, Tokyo, Japan) cut in 1 × 10 cm strips, weighing ~0.1 g, increasing 10-fold when hydrated. This hand-feeding approach has been used in prior study of Aplysia feeding behavior.[146],[147] The consumed seaweed amount was converted to hydrated weight and normalized to the animal’s body weight. Each strip of seaweed was delivered to the mouth area with forceps. Feeding was terminated after 1 h or when animals stopped ingesting seaweed for 3 min.

[1] = system: CBI-2-elicited feeding motor programs; assay: CBI-2-elicited feeding motor programs in isolated cerebral and buccal ganglia; parameters: species or system Aplysia californica; settings: for B8 activity (frequency) during retraction: 10^-6 M and 10^-5 M; for Feeding program effect, summary grade: Table S1 summary in words
Procedure: To explore the neural basis of the behavioral effects of apCCKs, we examined their modulation of feeding-motor programs in isolated ganglia. All eight forms of apCCKs were tested on programs induced by CBI-2, a command-like interneuron that is active during food-elicited feeding behavior[56] and provides potent excitatory inputs to buccal central pattern generator (CPG) interneurons,[54],[77] orchestrating ingestive motor programs (Figure S23A). Stable single-cycle motor programs were evoked by stimulating CBI-2 at 8–10 Hz throughout the protraction phase with a 90-s intertrial interval. Two concentrations, 10^−6 M and 10^−5 M, of apCCKs were tested.
(§1) Intracellular and extracellular recordings were made as described previously.[57]–[59],[61],[151] To prevent movements of ganglia caused by myoactive apCCK (especially [sY8]-apCCK1 and [sY6, sY8]-apCCK1) during bath application, we treated the ganglia with 0.8% protease IX for 1–2 min prior to desheathing. Subsequently, ganglia were desheathed, transferred to a recording chamber containing ~1.5 mL of ASW (460 mM NaCl, 10 mM KCl, 11mM CaCl2, 55 mM MgCl2, and 10 mM HEPES, pH 7.6), continuously perfused at 0.3 mL/min, and maintained at 14°C–17°C. The experiments examining the effects of apCCKs on excitability of B20/B34/B61/62/B65/B64 neurons were performed in a high divalent saline (368 mM NaCl, 8 mM KCl, 13.8 mM CaCl2, 115 mM MgCl2, and 10 mM HEPES, pH 7.6), which increases the spiking threshold of neurons and therefore curtails polysynaptic influences. Intracellular recordings were obtained using 5–10 MΩ sharp microelectrodes filled with an electrolyte (0.6 M K2SO4 plus 60 mM KCl). Extracellular recordings were acquired from polyethylene suction electrodes. Grass S88 and WPI Pulsemaster A300 stimulators were used to provide timing signals for intracellular and extracellular stimulation. To determine the effects of various forms of apCCKs on Aplysia feeding programs, we performed experiments with the cerebral and buccal ganglia. Freshly made apCCK solution in ASW was perfused into the recording chamber. Feeding-motor programs were elicited by stimulation of command-like neuron CBI-2 at 8–10 Hz or stimulation of the EN at 2 Hz, 3 ms, 15 V, and were monitored by bursting activity of the I2 nerve of the buccal ganglion.[58],[59],[61] Typically, we recorded from motor neuron B8, and one interneuron, e.g., B40 or B20. To determine effects of apCCKs on synaptic strength, we stimulated presynaptic neuron, CBI-2, B34 (plus 1 nA current) or B65 at 10 Hz for 2 s for several trials and waited 1 min between each trial. The stimulation duration for each trial was set at 2 s because this allows the expression of synaptic facilitation without evoking too many spikes. Typically, the amplitude of the last EPSP at each concentration of peptides was quantified unless otherwise stated.

[2] = system: B20, B40, B64, B34, B61/62, B65 neurons and CBI-2 synapses; assay: Electrophysiology: excitability and synaptic strength of identified feeding-circuit neurons; parameters: species or system Aplysia californica
Source text: To characterize apCCK mechanisms of action, we investigated their effects on synaptic and intrinsic plasticity of key circuit elements. […] However, [sY8]-apCCK1 decreased synaptic strength between CBI-2 and B40 (Figures S26C and S26D).
as §1

[3] = system: EN-elicited feeding motor programs; assay: EN-elicited egestive motor programs in isolated ganglia; parameters: species or system Aplysia californica; settings: EN stimulation at 2 Hz
Source text: Although protraction (B61/62) activity is inhibited by apCCKs during CBI-2-elicited programs, this might not be the case for the egestive motor programs elicited by EN stimulation, which could contribute positively to satiety. We therefore examined [sY8]-apCCK1 effects on B61/62 activity in EN-elicited egestive motor programs. […] This difference may be explained in part by effects on the interneuron B65, which is strongly active during EN programs but not during CBI-2 programs,[56],[81]–[83] whereas the opposite is true for B34.[54],[61] B65 elicits fast excitatory postsynaptic potentials (EPSPs) in B61/62.[81] [sY8]-apCCK1 increased B65 excitability (Figures 6M and 6N) and EPSPs from B65 to B61/62 (Figures 6O and 6P), which could account for the increase of B61/62 activity during EN programs.
Intracellular and extracellular recordings were made as described previously.[57]–[59],[61],[151] […] Feeding-motor programs were elicited by stimulation of command-like neuron CBI-2 at 8–10 Hz or stimulation of the EN at 2 Hz, 3 ms, 15 V, and were monitored by bursting activity of the I2 nerve of the buccal ganglion.[58],[59],[61] Typically, we recorded from motor neuron B8, and one interneuron, e.g., B40 or B20. […] Typically, the amplitude of the last EPSP at each concentration of peptides was quantified unless otherwise stated.

[4] = injection into hemocoel of apCCK solutions (10^-7 M or 10^-6 M) vs ASW
[5] = presynaptic stimulation 10 Hz for 2 s, last EPSP

CC(C)C[C@H](NC(=O)CNC(=O)[C@H](Cc1ccc(OS(=O)(=O)O)cc1)NC(=O)[C@H](CC(=O)O)NC(=O)[C@H](Cc1ccc(OS(=O)(=O)O)cc1)NC(=O)[C@H](CO)NC(=O)[C@H](Cc1c[nH]c2ccccc12)NC(=O)[C@H](C)NC(=O)CNC(=O)[C@@H]1CCC(=O)N1)C(=O)NCC(=O)NCC(=O)NCC(=O)N[C@@H](CCCNC(=N)N)C(=O)N[C@@H](Cc1ccccc1)C(N)=O [[sY6, sY8]-apCCK1] ([pGlu]GAWS[sY]D[sY]GLGGGRF-NH2)
Behavioral effect (food intake), summary grade (Aplysia californica): Strong | Time to consume one strip of seaweed (average of the first three strips) (Aplysia californica; injected with 10^-8 M, compared with control animals): took longer | Food intake (seaweed consumed in a single meal) (Aplysia californica; [4]): strongly reduced food intake | Protraction duration of CBI-2 programs ([1]; 10^-6 M and 10^-5 M tested): shortened | B8 activity (frequency) during retraction ([1]; CBI-2 programs): reduced | Feeding program effect, summary grade [1]: Strong

CC(C)C[C@H](NC(=O)CNC(=O)[C@H](Cc1ccc(O)cc1)NC(=O)[C@H](CC(=O)O)NC(=O)[C@H](Cc1ccc(OS(=O)(=O)O)cc1)NC(=O)[C@H](CO)NC(=O)[C@H](Cc1c[nH]c2ccccc12)NC(=O)[C@H](C)NC(=O)CNC(=O)[C@@H]1CCC(=O)N1)C(=O)NCC(=O)NCC(=O)NCC(=O)N[C@@H](CCCNC(=N)N)C(=O)N[C@@H](Cc1ccccc1)C(N)=O [[sY6]-apCCK1] ([pGlu]GAWS[sY]DYGLGGGRF-NH2)
Behavioral effect (food intake), summary grade (Aplysia californica): No effect | Food intake (seaweed consumed in a single meal) (Aplysia californica; [4]): did not influence feeding | Feeding program effect, summary grade [1]: No effect

CC(C)C[C@H](NC(=O)CNC(=O)[C@H](Cc1ccc(OS(=O)(=O)O)cc1)NC(=O)[C@H](CC(=O)O)NC(=O)[C@H](Cc1ccc(O)cc1)NC(=O)[C@H](CO)NC(=O)[C@H](Cc1c[nH]c2ccccc12)NC(=O)[C@H](C)NC(=O)CNC(=O)[C@@H]1CCC(=O)N1)C(=O)NCC(=O)NCC(=O)NCC(=O)N[C@@H](CCCNC(=N)N)C(=O)N[C@@H](Cc1ccccc1)C(N)=O [[sY8]-apCCK1] ([pGlu]GAWSYD[sY]GLGGGRF-NH2)
B40 excitability [2]: enhanced | Synaptic strength between CBI-2 and B40 [2]: decreased | B20 excitability ([2]; 10^-6 M, high divalent saline): significantly enhanced | EPSPs from B65 to B61/62 ([2]; first EPSP of each stimulation trial): increased | B34 excitability ([2]; high divalent saline): enhanced | B61/62 excitability ([2]; high divalent saline): enhanced | B64 excitability ([2]; high divalent saline): enhanced | B65 excitability ([2]; high divalent saline): increased | B20 excitability ([2]; higher concentration (10^-5 M), high divalent saline): no significant effect | Synaptic strength between B34 and B61/62 [2, 5]: decreased | Synaptic strength between CBI-2 and B34 [2, 5]: decreased | Synaptic strength between CBI-2 and B61/62 [2, 5]: decreased | B61/62 firing frequency in EN-elicited programs [3]: increased | Behavioral effect (food intake), summary grade (Aplysia californica): Strongest | Food intake (seaweed consumed in a single meal) (Aplysia californica; injection into hemocoel, 10^-8 M or 10^-7 M): completely inhibiting consumption | B20 firing frequency in CBI-2 programs ([1]; 10^-6 M): increased | Type of CBI-2-elicited motor program ([1]; 10^-6 M): shifted ingestive programs to egestive | B34 frequency in CBI-2 programs ([1]; 10^-6 M and 10^-5 M tested): decreased | B40 firing frequency in CBI-2 programs ([1]; 10^-6 M and 10^-5 M tested): decreased | B61/62 frequency in CBI-2 programs ([1]; 10^-6 M and 10^-5 M tested): decreased | Protraction duration of CBI-2 programs ([1]; 10^-6 M and 10^-5 M tested): shortened | Retraction duration of CBI-2 programs ([1]; 10^-6 M and 10^-5 M tested): shortened | B8 activity during protraction ([1]; CBI-2 programs, 10^-5 M): decreased | B8 activity during protraction ([1]; CBI-2 programs, 10^-6 M): significantly increased | B8 activity (frequency) during retraction ([1]; CBI-2 programs): significantly decreased | Firing frequency of the I2 nerve ([1]; CBI-2 programs, 10^-6 M and 10^-5 M tested): significantly decreased | Feeding program effect, summary grade [1]: Strongest

CC(C)C[C@H](NC(=O)CNC(=O)[C@H](Cc1ccc(O)cc1)NC(=O)[C@H](CC(=O)O)NC(=O)[C@H](Cc1ccc(O)cc1)NC(=O)[C@H](CO)NC(=O)[C@H](Cc1c[nH]c2ccccc12)NC(=O)[C@H](C)NC(=O)CNC(=O)[C@@H]1CCC(=O)N1)C(=O)NCC(=O)NCC(=O)NCC(=O)N[C@@H](CCCNC(=N)N)C(=O)N[C@@H](Cc1ccccc1)C(N)=O [apCCK1] ([pGlu]GAWSYDYGLGGGRF-NH2)
Behavioral effect (food intake), summary grade (Aplysia californica): No effect | Food intake (seaweed consumed in a single meal) (Aplysia californica; [4]): did not influence feeding | Feeding program effect, summary grade [1]: No effect
